Reference: patent US20250215101A1, “DR5 Agonist and PLK1 Inhibitor or CDK Inhibitor Combination Therapy” (Inhibrx Biosciences, Inc., priority 2022, published 2025)

Experiments:
Assay in all cases: Cytotoxicity assay, colorectal cancer cell line panel, onvansertib +/- 1 nM INBRX-109
Format in all cases: cell-based
HCT-15 = conditions: for Max Cytotox at 600 nM: HCT-15; for EC50: Homo sapiens, HCT-15, HCT-15
Procedure: (§1) Monolayer cultures of each cell line were harvested for compound screening as detailed below.
(§2) Also on day 2, test and control articles were added.
(§3) On day 4, viability measurements were taken. […] Data was graphed in GraphPad Prism 9.
(§4) The results for a panel of colorectal cancer cell lines are shown in Table 3 and FIGS. 4-6, and the results for a panel of pancreatic cell lines are shown in Table 4 and FIGS. 7 and 8.

SW-948 = conditions: for EC50: Homo sapiens, SW948, SW-948; for Max Cytotox at 600 nM: SW-948
Procedure: as §1, §2, §3, §4

SW-837 = conditions: for EC50: Homo sapiens, SW837, SW-837; for Max Cytotox at 600 nM: SW-837
Procedure: as §1, §2, §3, §4

SW-1116 = conditions: for EC50: Homo sapiens, SW 1116, SW-1116; for Max Cytotox at 600 nM: SW-1116
Procedure: as §1, §2, §3, §4

HCT-8 = conditions: for Max Cytotox at 600 nM: HCT-8; for EC50: Homo sapiens, HCT-8, HCT-8
Procedure: as §1, §2, §3, §4

SNU-C2A = test system: SNU-C2A
Procedure: as §1, §2, §3, §4

LS174T = conditions: for EC50: Homo sapiens
Procedure: as §1, §2, §3, §4

Hutu 80 = conditions: for EC50: Homo sapiens, HuTu80, Hutu 80; for Max Cytotox at 600 nM: Hutu 80
Procedure: as §1, §2, §3, §4

SNU-C5 = test system: SNU-C5
Procedure: as §1, §2, §3, §4

SK-CO-1 = conditions: for EC50: Homo sapiens, SK-CO-1, SK-CO-1; for Max Cytotox at 600 nM: SK-CO-1
Procedure: as §1, §2, §3, §4

SW-403 = conditions: for EC50: Homo sapiens, SW-403, SW-403; for Max Cytotox at 600 nM: SW-403
Procedure: as §1, §2, §3, §4

SNU-81 = test system: SNU-81
Procedure: as §1, §2, §3, §4

SW-48 = conditions: for EC50: Homo sapiens, SW48, SW-48; for Max Cytotox at 600 nM: SW-48
Procedure: as §1, §2, §3, §4

SW620 = conditions: for EC50: Homo sapiens, SW-620, SW620; for Max Cytotox at 600 nM: SW620
Procedure: as §1, §2, §3, §4

SW-1463 = conditions: for EC50: Homo sapiens, SW1463, SW-1463; for Max Cytotox at 600 nM: SW-1463
Procedure: as §1, §2, §3, §4

**Q.** For `CN1CCN(c2ccc(OC(F)(F)F)c(Nc3ncc4c(n3)-c3c(c(C(N)=O)nn3CCO)CC4)c2)CC1` [Onvansertib], which “Max Cytotox at 600 nM” value (HCT-15; onvansertib + 1 nM INBRX-109) is on record?
**A.** Its value is 94.9%.

**Q.** And the “Max Cytotox at 600 nM” value (HCT-15; onvansertib only)?
**A.** The value was 61.4%.

**Q.** And the EC50 (HCT-15; onvansertib + 1 nM INBRX-109)?
**A.** The EC50 was 175 nM.

**Q.** And the EC50 (HCT-15; onvansertib only)?
**A.** The EC50 was 268 nM.

**Q.** What about the EC50 (SW-948; onvansertib + 1 nM INBRX-109) of the same molecule?
**A.** The EC50 was 23.3 nM.

**Q.** And the EC50 (SW-948; onvansertib only)?
**A.** The EC50 was 97 nM.

**Q.** What about the “Max Cytotox at 600 nM” value (SW-948; onvansertib + 1 nM INBRX-109) of the same molecule?
**A.** The value was 99.0%.

**Q.** What about the “Max Cytotox at 600 nM” value (SW-948; onvansertib only) of the same molecule?
**A.** The value was 43.2%.

**Q.** And the EC50 (SW-837; onvansertib + 1 nM INBRX-109)?
**A.** The EC50 was 184 nM.

**Q.** What about the EC50 (SW-837; onvansertib only) of the same molecule?
**A.** Its EC50 is 227 nM.

**Q.** What about the “Max Cytotox at 600 nM” value (SW-837; onvansertib + 1 nM INBRX-109) of the same molecule?
**A.** The value was 73.5%.

**Q.** What about the “Max Cytotox at 600 nM” value (SW-837; onvansertib only) of the same molecule?
**A.** The value was 24.5%.

**Q.** What about the EC50 (SW-1116; onvansertib + 1 nM INBRX-109) of the same molecule?
**A.** The EC50 was 411 nM.

**Q.** What about the EC50 (SW-1116; onvansertib only) of the same molecule?
**A.** The EC50 was 441 nM.

**Q.** What about the “Max Cytotox at 600 nM” value (SW-1116; onvansertib + 1 nM INBRX-109) of the same molecule?
**A.** Its value is 39.4%.

**Q.** What about the “Max Cytotox at 600 nM” value (SW-1116; onvansertib only) of the same molecule?
**A.** Its value is 10.4%.

**Q.** And the “Max Cytotox at 600 nM” value (HCT-8; onvansertib + 1 nM INBRX-109)?
**A.** Its value is 81.3%.

**Q.** And the “Max Cytotox at 600 nM” value (HCT-8; onvansertib only)?
**A.** The value was 52.7%.

**Q.** And the EC50 (HCT-8; onvansertib + 1 nM INBRX-109)?
**A.** The EC50 was 200 nM.

**Q.** What about the EC50 (HCT-8; onvansertib only) of the same molecule?
**A.** Its EC50 is 205 nM.

**Q.** And the EC50 (SNU-C2A; onvansertib + 1 nM INBRX-109)?
**A.** Its EC50 is 42.9 nM.

**Q.** What about the “Max Cytotox at 600 nM” value (SNU-C2A; onvansertib + 1 nM INBRX-109) of the same molecule?
**A.** The value was 78.0%.

**Q.** What about the EC50 (SNU-C2A; onvansertib only) of the same molecule?
**A.** Its EC50 is 72.7 nM.

**Q.** What about the “Max Cytotox at 600 nM” value (SNU-C2A; onvansertib only) of the same molecule?
**A.** Its value is 42.9%.

**Q.** And the EC50 (LS174T; onvansertib + 1 nM INBRX-109)?
**A.** Its EC50 is 109 nM.

**Q.** And the EC50 (LS174T; onvansertib only)?
**A.** Its EC50 is 252 nM.

**Q.** What about the “Max Cytotox at 600 nM” value (LS174T; onvansertib + 1 nM INBRX-109) of the same molecule?
**A.** Its value is 94.1%.

**Q.** And the “Max Cytotox at 600 nM” value (LS174T; onvansertib only)?
**A.** Its value is 59.5%.

**Q.** And the EC50 (Hutu 80; onvansertib + 1 nM INBRX-109)?
**A.** Its EC50 is 133 nM.

**Q.** What about the EC50 (Hutu 80; onvansertib only) of the same molecule?
**A.** The EC50 was 138 nM.

**Q.** And the “Max Cytotox at 600 nM” value (Hutu 80; onvansertib + 1 nM INBRX-109)?
**A.** The value was 86.5%.

**Q.** And the “Max Cytotox at 600 nM” value (Hutu 80; onvansertib only)?
**A.** The value was 85.4%.

**Q.** And the EC50 (SNU-C5; onvansertib + 1 nM INBRX-109)?
**A.** Its EC50 is 57.7 nM.

**Q.** And the “Max Cytotox at 600 nM” value (SNU-C5; onvansertib + 1 nM INBRX-109)?
**A.** Its value is 87.7%.

**Q.** What about the EC50 (SNU-C5; onvansertib only) of the same molecule?
**A.** The EC50 was 95.6 nM.

**Q.** And the “Max Cytotox at 600 nM” value (SNU-C5; onvansertib only)?
**A.** The value was 42.9%.

**Q.** What about the EC50 (SK-CO-1; onvansertib + 1 nM INBRX-109) of the same molecule?
**A.** Its EC50 is 111 nM.

**Q.** And the EC50 (SK-CO-1; onvansertib only)?
**A.** Its EC50 is 113 nM.

**Q.** What about the “Max Cytotox at 600 nM” value (SK-CO-1; onvansertib + 1 nM INBRX-109) of the same molecule?
**A.** Its value is 94.2%.

**Q.** And the “Max Cytotox at 600 nM” value (SK-CO-1; onvansertib only)?
**A.** The value was 52.8%.

**Q.** And the EC50 (SW-403; onvansertib + 1 nM INBRX-109)?
**A.** The EC50 was 64.9 nM.

**Q.** What about the EC50 (SW-403; onvansertib only) of the same molecule?
**A.** Its EC50 is 62.5 nM.

**Q.** And the “Max Cytotox at 600 nM” value (SW-403; onvansertib + 1 nM INBRX-109)?
**A.** Its value is 89.0%.

**Q.** What about the “Max Cytotox at 600 nM” value (SW-403; onvansertib only) of the same molecule?
**A.** The value was 46.4%.

**Q.** And the EC50 (SNU-81; onvansertib + 1 nM INBRX-109)?
**A.** The EC50 was 71.9 nM.

**Q.** What about the “Max Cytotox at 600 nM” value (SNU-81; onvansertib + 1 nM INBRX-109) of the same molecule?
**A.** Its value is 92.3%.

**Q.** And the EC50 (SNU-81; onvansertib only)?
**A.** Its EC50 is 187 nM.

**Q.** And the “Max Cytotox at 600 nM” value (SNU-81; onvansertib only)?
**A.** The value was 24.3%.

**Q.** And the EC50 (SW-48; onvansertib + 1 nM INBRX-109)?
**A.** The EC50 was 28.3 nM.

**Q.** And the EC50 (SW-48; onvansertib only)?
**A.** The EC50 was 37.3 nM.

**Q.** And the “Max Cytotox at 600 nM” value (SW-48; onvansertib + 1 nM INBRX-109)?
**A.** The value was 99.4%.

**Q.** And the “Max Cytotox at 600 nM” value (SW-48; onvansertib only)?
**A.** Its value is 76.6%.

**Q.** And the EC50 (SW620; onvansertib + 1 nM INBRX-109)?
**A.** The EC50 was 54.6 nM.

**Q.** And the EC50 (SW620; onvansertib only)?
**A.** The EC50 was 62.1 nM.

**Q.** And the “Max Cytotox at 600 nM” value (SW620; onvansertib + 1 nM INBRX-109)?
**A.** Its value is 90.4%.

**Q.** What about the “Max Cytotox at 600 nM” value (SW620; onvansertib only) of the same molecule?
**A.** Its value is 61.8%.

**Q.** What about the EC50 (SW-1463; onvansertib + 1 nM INBRX-109) of the same molecule?
**A.** Its EC50 is 98 nM.

**Q.** What about the EC50 (SW-1463; onvansertib only) of the same molecule?
**A.** The EC50 was 201 nM.

**Q.** What about the “Max Cytotox at 600 nM” value (SW-1463; onvansertib + 1 nM INBRX-109) of the same molecule?
**A.** Its value is 64.2%.

**Q.** And the “Max Cytotox at 600 nM” value (SW-1463; onvansertib only)?
**A.** Its value is 21.0%.
